In brackets after ≈: the same amount, converted by molar mass.
Tests used:
Assay type in all cases: cell-based
MEL-28 (human melanoma) = test: Cytotoxicity against MEL-28 cell line in culture; details: SK-MEL-28; MEL-28 human melanoma cells in culture
[1] = system: A549 (human lung carcinoma); test: Cytotoxicity against A549 cell line in culture; details: A549 human lung carcinoma cells in culture
P388 (leukemia) = test: Cytotoxicity against P388 cell line in culture; details: Mus musculus; P388 leukemia cells in culture
[2] = system: HT29 (human colon carcinoma); test: Cytotoxicity against HT29 cell line in culture; details: HT-29; HT29 human colon carcinoma cells in culture

Structure (SMILES)	IC50 (MEL-28 (human melanoma)) [mg/L]	IC50 [1] [mg/L]	IC50 (P388 (leukemia)) [mg/L]	IC50 [2] [mg/L]
CC/C=C(C)/C=C/CCC[C@@]1(OC)C[C@H](C)[C@H](CC(=O)O)OO1 [Epidioxymanadic B, epidioxymanadic acid B]	2.5 (≈ 7.66 µM)	1 (≈ 3.06 µM)	0.5 (≈ 1.53 µM)	2 (≈ 6.13 µM)
C/C=C(C)/C=C/CCC[C@@]1(OC)C[C@H](C)[C@H](CC(=O)O)OO1 [Epidioxymanadic A, epidioxymanadic acid A]	5 (≈ 16 µM)	1 (≈ 3.2 µM)	0.5 (≈ 1.6 µM)	2 (≈ 6.4 µM)

From patent US5514705A, “Epidioxymanadic acids A and B” (PharmaMar, S.A., priority 1994, dated 1996)
